Reference: paper PMC2992812 (The Biochemical journal, 2010)
Values belong to the compound of their own block, whether it stands above or below them.

Legend:
TRHR [1] = target: T1, TRHR (Rattus norvegicus, UniProt Q01717); assay: Fixed-cell ELISA, GRK site phosphorylation/dephosphorylation of TRHR tail; assay type: cell-based; conditions: EC50 (GRK site phosphorylation)
T1 sequence (Q01717 1-412): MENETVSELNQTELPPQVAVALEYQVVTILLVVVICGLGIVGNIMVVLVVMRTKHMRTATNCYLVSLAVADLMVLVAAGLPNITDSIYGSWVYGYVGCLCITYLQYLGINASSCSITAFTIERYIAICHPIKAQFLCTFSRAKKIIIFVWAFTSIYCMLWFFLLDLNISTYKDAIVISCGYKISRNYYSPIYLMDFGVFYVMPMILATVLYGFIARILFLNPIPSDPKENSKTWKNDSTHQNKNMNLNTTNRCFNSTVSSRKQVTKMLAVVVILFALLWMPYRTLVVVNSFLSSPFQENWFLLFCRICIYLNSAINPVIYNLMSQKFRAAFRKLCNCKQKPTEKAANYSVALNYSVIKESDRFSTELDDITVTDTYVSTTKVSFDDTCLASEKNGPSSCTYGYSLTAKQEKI

TRHR [2] = target: T1, TRHR; assay: Receptor internalization assay; assay type: cell-based; conditions: 100 nM TRH, after 1 h, HEK-293
TRHR–β2AR chimaera [3] = target: T2, TRHR–β2AR chimaera (Rattus norvegicus, UniProt Q01717); assay: Receptor internalization assay; assay type: cell-based, rat TRHR / human β2AR; conditions: 100 nM TRH, after 1 h, HEK-293
T2 sequence (Q01717 1-337): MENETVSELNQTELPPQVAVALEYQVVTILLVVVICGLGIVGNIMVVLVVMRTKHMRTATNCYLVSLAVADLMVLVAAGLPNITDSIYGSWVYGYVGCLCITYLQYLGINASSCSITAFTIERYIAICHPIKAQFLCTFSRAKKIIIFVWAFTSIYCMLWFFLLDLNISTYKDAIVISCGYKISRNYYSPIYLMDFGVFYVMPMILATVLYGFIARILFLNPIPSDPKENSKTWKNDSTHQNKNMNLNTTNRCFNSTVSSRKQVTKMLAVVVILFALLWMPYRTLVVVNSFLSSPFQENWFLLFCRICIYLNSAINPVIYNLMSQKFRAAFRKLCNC

TRHR–β2AR chimaera [4] = target: T2, TRHR–β2AR chimaera; assay: [methyl-3H]TRH binding to live cells; parameters: species or system rat TRHR / human β2AR; conditions: HEK-293, 90 min at 37°C, Scatchard analysis
β2AR = β2AR (Homo sapiens, UniProt P07550); assay: Fixed-cell ELISA, PKA site; assay type: cell-based; conditions: 10 μM H89 pre-incubated 30 min and during 5 min with 1 μM isoprenaline
β2AR–TRHR chimaera = assay: Receptor internalization assay; assay type: cell-based, human β2AR / rat TRHR; conditions: stable HEK-293

Sequence of β2AR (P07550 whole entry): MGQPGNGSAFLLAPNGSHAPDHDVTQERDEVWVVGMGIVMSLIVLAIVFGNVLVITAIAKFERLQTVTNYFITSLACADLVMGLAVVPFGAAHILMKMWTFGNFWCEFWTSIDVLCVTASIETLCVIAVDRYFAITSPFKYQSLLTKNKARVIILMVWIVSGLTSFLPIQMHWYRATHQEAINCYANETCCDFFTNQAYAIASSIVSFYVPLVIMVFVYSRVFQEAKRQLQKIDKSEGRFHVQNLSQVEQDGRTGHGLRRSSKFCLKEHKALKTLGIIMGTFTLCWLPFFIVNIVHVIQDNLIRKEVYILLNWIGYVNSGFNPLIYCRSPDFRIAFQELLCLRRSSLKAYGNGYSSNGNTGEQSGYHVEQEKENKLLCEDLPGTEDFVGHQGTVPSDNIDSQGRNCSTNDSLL

- EC50 (TRHR [1]): 8 nM
- Receptor internalized (TRHR [2]): 60%
- Receptor internalized (TRHR–β2AR chimaera [3]): 40%
Compound: NC(=O)[C@@H]1CCCN1C(=O)[C@H](Cc1cnc[nH]1)NC(=O)[C@@H]1CCC(=O)N1 [TRH, thyrotropin-releasing hormone]

- Affinity for [methyl-3H]TRH compared with wild-type TRHR (TRHR–β2AR chimaera [4]): reduced affinity
Compound: [methyl-3H]TRH

Compound: O=S(=O)(NCCNC/C=C/c1ccc(Br)cc1)c1cccc2cnccc12 [H89]
- Inhibition of isoprenaline-stimulated PKA site phosphorylation (β2AR): 80%

Compound: CC(C)NCC(O)c1ccc(O)c(O)c1 (stereo not drawn) [isoprenaline]
- More internalization at 1 μM than at 1 nM isoprenaline (β2AR–TRHR chimaera): 2 fold
